Consider two compounds from US10473667B2, “Methods apparatuses and systems for detecting and quantifying phosphoproteins” (Oregon Health & Science University, priority 2012, dated 2019).

The subject of assay [1] is STAT5*. As to the kind of experiment: QD probe assay for STAT5* in whole tumor cells. The class given is cell-based. Conditions: tumor cells treated with Gleevec vs control (untreated) tumor cells, FIGS. 9A-9B. The text has this: Briefly; control tumor cells and tumor cells treated with Gleevec™ were processed (fixing, permeabilization, blocking, washing, etc.) to specifically bind optimized concentrations of QD-anti-STAT5* antibody probes to STAT5* protein kinase. After washing, the cells were imaged in multiple slices using the imaging techniques described above, covering the entire 3D space of the cells. QD probe bound to the cells was then compiled and projected on the cell for quantification.

The subject of assay [2] is STAT5*. The experiment in a line: QD-STAT5* / QD-pSTAT5 probe assay in K562 CML cells. Format: cell-based. Conditions: clonal K562 CML cells, FIG. 11A.
Description: Relative amounts of bound QD probes in each condition were estimated using the algorithms described above.
An epifluorescent microscope was used to acquire images of cells labeled with QD-pCRKL and QD-pSTAT5 probes, including are digital images of tumor cells (FIG. 10A), tumor cells treated with dasatinib (FIG. 10B), and control cells with antibody omitted (FIG. 10C), Average phosphoprotein levels were computed as the average number of QD probes/cell.

For the compound `Cc1ccc(NC(=O)c2ccc(CN3CCN(C)CC3)cc2)cc1Nc1nccc(-c2cccnc2)n1` [Gleevec™, imatinib], the “STAT5* activation (QD-anti-STAT5* probe binding)” value in the assay with STAT5* [1] is “marked decrease in STAT5* activation”.
Consider `CC[C@H](C)C(=O)O[C@H]1C[C@@H](C)C=C2C=C[C@H](C)[C@H](CC[C@@H]3C[C@@H](O)CC(=O)O3)[C@H]21` [lovastatin], for which the “heterogeneity in pSTAT5 activity (SD of QDs/cell)” value with STAT5* [2] is recorded as “reduced”.
